Measurements taken from ChEMBL document CHEMBL1141584, “Synthesis, biological evaluation and molecular modelling studies of methyleneimidazole substituted biaryls as inhibitors of human 17alpha-hydroxylase-17,20-lyase (CYP17). Part I: Heterocyclic modifications of the core structure” (Bioorg Med Chem, 2008).
One block for each molecule: values may come before it.

Key:
Rattus norvegicus [1] = test: Reduction of testosterone level in Wistar rat plasma at 50 mg/kg, po after 1 hr by ELISA relative to pretreatment value; type: functional; set-up: scale not given: the % may be the effect or the level left
CYP2D6 [2] = molecular target: T1, CYP2D6 (Homo sapiens, UniProt P10635); test: Inhibition of recombinant CYP2D6 at 1 uM; type: ADME
T1 sequence (P10635 whole entry): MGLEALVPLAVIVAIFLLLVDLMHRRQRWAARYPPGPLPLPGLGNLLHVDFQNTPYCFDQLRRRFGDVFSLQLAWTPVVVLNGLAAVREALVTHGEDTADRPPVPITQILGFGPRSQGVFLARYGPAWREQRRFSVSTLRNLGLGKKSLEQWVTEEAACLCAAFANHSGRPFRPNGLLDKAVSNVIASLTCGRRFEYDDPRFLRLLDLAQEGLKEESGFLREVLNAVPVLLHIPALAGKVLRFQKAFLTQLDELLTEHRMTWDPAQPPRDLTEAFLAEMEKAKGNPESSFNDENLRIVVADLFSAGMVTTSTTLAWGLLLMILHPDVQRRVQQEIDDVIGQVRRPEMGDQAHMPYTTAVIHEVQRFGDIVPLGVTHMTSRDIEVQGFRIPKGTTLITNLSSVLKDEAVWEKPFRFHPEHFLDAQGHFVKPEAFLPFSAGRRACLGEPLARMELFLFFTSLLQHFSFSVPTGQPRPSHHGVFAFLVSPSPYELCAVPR

[3] = AUC (0 to infinity) in Wistar rat at 50 mg/kg, po; type: ADME, organism-based; set-up: time infinity, dose 50 mg/kg, route oral; details: plasma
CYP2C19 [4] = molecular target: T2, CYP2C19 (Homo sapiens, UniProt P33261); test: Inhibition of recombinant CYP2C19 at 10 uM; type: ADME
T2 sequence (P33261 whole entry): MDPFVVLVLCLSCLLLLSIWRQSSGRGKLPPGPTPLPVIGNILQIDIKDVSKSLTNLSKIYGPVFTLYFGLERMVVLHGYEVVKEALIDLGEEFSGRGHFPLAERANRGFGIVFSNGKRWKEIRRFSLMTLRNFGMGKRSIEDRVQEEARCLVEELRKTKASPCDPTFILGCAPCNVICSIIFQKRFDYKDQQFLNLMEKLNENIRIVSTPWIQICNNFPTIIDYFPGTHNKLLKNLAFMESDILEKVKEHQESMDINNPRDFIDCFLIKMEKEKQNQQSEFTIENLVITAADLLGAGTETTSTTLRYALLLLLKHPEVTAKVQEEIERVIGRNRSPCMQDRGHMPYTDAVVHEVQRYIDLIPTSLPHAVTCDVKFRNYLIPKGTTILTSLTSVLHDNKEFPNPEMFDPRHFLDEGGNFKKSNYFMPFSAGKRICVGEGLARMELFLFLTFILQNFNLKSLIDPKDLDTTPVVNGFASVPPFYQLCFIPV

CYP2D6 [5] = molecular target: T1, CYP2D6; test: Inhibition of recombinant CYP2D6 at 10 uM; type: ADME
CYP1A2 [6] = molecular target: T3, CYP1A2 (Homo sapiens, UniProt P05177); test: Inhibition of recombinant CYP1A2 at 1 uM; type: ADME
T3 sequence (P05177 whole entry): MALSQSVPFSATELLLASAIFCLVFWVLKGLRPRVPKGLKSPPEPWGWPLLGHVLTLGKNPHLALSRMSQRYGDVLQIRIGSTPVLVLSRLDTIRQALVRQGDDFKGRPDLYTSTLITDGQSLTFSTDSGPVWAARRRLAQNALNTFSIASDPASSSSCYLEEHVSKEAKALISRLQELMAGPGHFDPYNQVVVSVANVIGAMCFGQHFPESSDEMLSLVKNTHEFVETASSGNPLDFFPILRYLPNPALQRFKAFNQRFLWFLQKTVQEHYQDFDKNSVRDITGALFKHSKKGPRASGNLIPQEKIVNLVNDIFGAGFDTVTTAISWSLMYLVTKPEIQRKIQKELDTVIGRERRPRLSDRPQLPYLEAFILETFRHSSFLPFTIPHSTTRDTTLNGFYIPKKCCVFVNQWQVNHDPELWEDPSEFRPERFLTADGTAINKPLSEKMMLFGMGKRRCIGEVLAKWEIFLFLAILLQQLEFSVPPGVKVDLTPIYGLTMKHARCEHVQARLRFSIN

CYP3A4 [7] = molecular target: T4, CYP3A4 (Homo sapiens, UniProt P08684); test: Inhibition of recombinant CYP3A4 at 10 uM; type: ADME
T4 sequence (P08684 whole entry): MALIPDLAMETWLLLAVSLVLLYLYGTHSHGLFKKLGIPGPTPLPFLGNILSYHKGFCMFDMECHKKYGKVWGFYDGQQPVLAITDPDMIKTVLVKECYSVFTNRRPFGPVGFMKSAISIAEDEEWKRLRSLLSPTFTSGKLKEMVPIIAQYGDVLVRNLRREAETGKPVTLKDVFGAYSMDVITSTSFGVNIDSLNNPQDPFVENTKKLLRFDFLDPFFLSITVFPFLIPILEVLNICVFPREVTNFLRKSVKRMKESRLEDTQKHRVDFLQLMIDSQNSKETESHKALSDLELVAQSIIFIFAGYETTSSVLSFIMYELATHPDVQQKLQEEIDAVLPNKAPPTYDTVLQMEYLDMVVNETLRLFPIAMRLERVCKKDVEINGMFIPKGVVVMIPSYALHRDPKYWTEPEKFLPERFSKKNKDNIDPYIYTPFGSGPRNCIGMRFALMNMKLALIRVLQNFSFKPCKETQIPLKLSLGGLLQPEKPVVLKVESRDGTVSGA

Rattus norvegicus [8] = test: Reduction of testosterone level in Wistar rat plasma at 50 mg/kg, po after 2 hrs by ELISA relative to pretreatment value; type: functional; set-up: scale not given: the % may be the effect or the level left
[9] = molecular target: T5, Steroid 17-alpha-hydroxylase/17,20 lyase (Homo sapiens, UniProt P05093); test: Inhibition of human CYP17 expressed in Escherichia coli co-expressed with NADPH-P450 reductase
T5 sequence (P05093 whole entry): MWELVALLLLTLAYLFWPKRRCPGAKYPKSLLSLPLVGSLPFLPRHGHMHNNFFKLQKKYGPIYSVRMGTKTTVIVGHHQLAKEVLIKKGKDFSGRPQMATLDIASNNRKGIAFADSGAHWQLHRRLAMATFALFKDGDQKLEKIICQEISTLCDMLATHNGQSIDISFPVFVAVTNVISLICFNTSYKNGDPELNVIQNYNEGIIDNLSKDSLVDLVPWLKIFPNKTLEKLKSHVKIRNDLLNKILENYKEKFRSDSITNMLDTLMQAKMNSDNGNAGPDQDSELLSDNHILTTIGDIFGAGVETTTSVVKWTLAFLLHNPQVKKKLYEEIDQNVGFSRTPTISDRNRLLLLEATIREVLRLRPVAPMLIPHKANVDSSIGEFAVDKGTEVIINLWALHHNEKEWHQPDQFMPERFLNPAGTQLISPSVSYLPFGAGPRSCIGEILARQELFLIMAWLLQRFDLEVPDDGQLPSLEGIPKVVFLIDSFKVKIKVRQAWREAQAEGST

CYP2C9 [10] = molecular target: T6, CYP2C9 (Homo sapiens, UniProt P11712); test: Inhibition of recombinant CYP2C9 at 10 uM; type: ADME
T6 sequence (P11712 whole entry): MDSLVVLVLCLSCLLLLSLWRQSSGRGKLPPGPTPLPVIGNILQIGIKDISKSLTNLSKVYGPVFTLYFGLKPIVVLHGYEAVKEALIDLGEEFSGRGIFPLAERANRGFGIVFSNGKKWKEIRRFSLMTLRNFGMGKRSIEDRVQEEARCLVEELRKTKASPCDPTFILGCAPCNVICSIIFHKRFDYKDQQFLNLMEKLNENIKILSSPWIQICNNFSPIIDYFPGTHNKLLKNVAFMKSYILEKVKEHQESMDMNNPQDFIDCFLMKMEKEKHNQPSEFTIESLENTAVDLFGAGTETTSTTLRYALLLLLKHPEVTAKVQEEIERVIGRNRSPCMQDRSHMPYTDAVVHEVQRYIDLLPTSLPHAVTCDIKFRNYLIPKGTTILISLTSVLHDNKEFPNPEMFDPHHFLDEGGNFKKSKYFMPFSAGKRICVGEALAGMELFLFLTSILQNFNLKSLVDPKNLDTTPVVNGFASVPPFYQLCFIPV

CYP2B6 [11] = molecular target: T7, CYP2B6 (Homo sapiens, UniProt P20813); test: Inhibition of recombinant CYP2B6 at 1 uM; type: ADME
T7 sequence (P20813 whole entry): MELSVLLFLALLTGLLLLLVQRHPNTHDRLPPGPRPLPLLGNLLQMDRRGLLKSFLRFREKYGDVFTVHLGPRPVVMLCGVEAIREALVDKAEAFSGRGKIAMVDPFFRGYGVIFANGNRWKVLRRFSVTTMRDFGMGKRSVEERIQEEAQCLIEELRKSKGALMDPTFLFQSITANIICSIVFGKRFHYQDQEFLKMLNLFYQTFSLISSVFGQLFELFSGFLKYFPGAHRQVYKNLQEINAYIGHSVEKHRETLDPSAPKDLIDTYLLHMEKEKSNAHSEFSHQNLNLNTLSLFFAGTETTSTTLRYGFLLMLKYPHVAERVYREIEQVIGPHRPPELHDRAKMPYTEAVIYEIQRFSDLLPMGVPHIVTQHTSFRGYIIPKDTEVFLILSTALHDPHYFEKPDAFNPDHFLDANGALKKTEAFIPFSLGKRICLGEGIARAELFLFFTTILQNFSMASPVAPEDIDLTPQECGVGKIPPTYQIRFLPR

CYP2B6 [12] = molecular target: T7, CYP2B6; test: Inhibition of recombinant CYP2B6 at 10 uM; type: ADME
[13] = Terminal half life in Wistar rat plasma at 50 mg/kg, po; type: ADME, organism-based; set-up: dose 50 mg/kg, route oral
[14] = molecular target: T5, Steroid 17-alpha-hydroxylase/17,20 lyase; test: Inhibition of human CYP17 expressed in Escherichia coli co-expressed with NADPH-P450 reductase at 2 uM
Rattus norvegicus [15] = test: Reduction of testosterone level in Wistar rat plasma at 50 mg/kg, po after 8 hrs by ELISA relative to pretreatment value; type: functional; set-up: scale not given: the % may be the effect or the level left
[16] = molecular target: T5, Steroid 17-alpha-hydroxylase/17,20 lyase; test: Inhibition of human CYP17 expressed in Escherichia coli co-expressed with NADPH-P450 reductase at 0.2 uM
Rattus norvegicus [17] = test: Reduction of testosterone level in Wistar rat at 50 mg/kg, po after 4 hrs by ELISA relative to pretreatment value; type: functional; set-up: scale not given: the % may be the effect or the level left
[18] = molecular target: T8, Steroid 17-alpha-hydroxylase/17,20 lyase (Rattus norvegicus, UniProt P11715); test: Inhibition of Sprague-Dawley rat testicular CYP17
T8 sequence (P11715 whole entry): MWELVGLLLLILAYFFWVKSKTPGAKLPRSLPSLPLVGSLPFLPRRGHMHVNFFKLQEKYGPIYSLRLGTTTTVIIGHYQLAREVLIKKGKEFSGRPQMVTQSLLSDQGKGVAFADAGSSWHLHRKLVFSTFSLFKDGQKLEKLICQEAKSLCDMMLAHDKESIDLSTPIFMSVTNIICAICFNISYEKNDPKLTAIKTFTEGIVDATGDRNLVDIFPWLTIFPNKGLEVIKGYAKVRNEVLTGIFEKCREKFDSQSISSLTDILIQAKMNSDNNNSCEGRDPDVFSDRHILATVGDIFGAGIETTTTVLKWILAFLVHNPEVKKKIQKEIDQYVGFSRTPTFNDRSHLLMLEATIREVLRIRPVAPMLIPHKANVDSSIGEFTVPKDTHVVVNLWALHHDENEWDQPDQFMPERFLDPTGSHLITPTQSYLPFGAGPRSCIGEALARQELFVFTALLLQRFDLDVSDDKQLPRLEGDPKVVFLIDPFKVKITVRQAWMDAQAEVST

CYP1A2 [19] = molecular target: T3, CYP1A2; test: Inhibition of recombinant CYP1A2 at 10 uM; type: ADME
CYP2C19 [20] = molecular target: T2, CYP2C19; test: Inhibition of recombinant CYP2C19 at 1 uM; type: ADME
[21] = Cmax in Wistar rat at 50 mg/kg, po; type: ADME, organism-based; set-up: dose 50 mg/kg, route oral; details: in vivo
[22] = Total body clearance in Wistar rat at 50 mg/kg, po; type: ADME, organism-based; set-up: dose 50 mg/kg, route oral; details: in vivo
CYP3A4 [23] = molecular target: T4, CYP3A4; test: Inhibition of recombinant CYP3A4 at 1 uM; type: ADME
[24] = Tmax in Wistar rat at 50 mg/kg, po; type: ADME, organism-based; set-up: dose 50 mg/kg, route oral; details: in vivo
CYP2C9 [25] = molecular target: T6, CYP2C9; test: Inhibition of recombinant CYP2C9 at 1 uM; type: ADME
Rattus norvegicus [26] = test: Reduction of testosterone level in Wistar rat plasma at 50 mg/kg, po after 6 hrs by ELISA relative to pretreatment value; type: functional; set-up: scale not given: the % may be the effect or the level left
Rattus norvegicus [27] = test: Reduction of testosterone level in Wistar rat plasma at 56.02 mg/kg, po after 2 hrs by ELISA relative to pretreatment value; type: functional; set-up: scale not given: the % may be the effect or the level left
Rattus norvegicus [28] = test: Reduction of testosterone level in Wistar rat plasma at 56.02 mg/kg, po after 8 hrs by ELISA relative to pretreatment value; type: functional; set-up: scale not given: the % may be the effect or the level left
Rattus norvegicus [29] = test: Reduction of testosterone level in Wistar rat plasma at 56.02 mg/kg, po after 6 hrs by ELISA relative to pretreatment value; type: functional; set-up: scale not given: the % may be the effect or the level left
Rattus norvegicus [30] = test: Reduction of testosterone level in Wistar rat plasma at 56.02 mg/kg, po after 1 hr by ELISA relative to pretreatment value; type: functional; set-up: scale not given: the % may be the effect or the level left
Rattus norvegicus [31] = test: Reduction of testosterone level in Wistar rat plasma at 56.02 mg/kg, po after 4 hrs by ELISA relative to pretreatment value; type: functional; set-up: scale not given: the % may be the effect or the level left

- inhibition at 1 µM (CYP2D6 [2]): 24%
- AUC(0-inf) [3]: 6700 ng·h/mL
- inhibition at 10 µM (CYP2C19 [4]): 100%
- inhibition at 10 µM (CYP2D6 [5]): 77%
- inhibition at 1 µM (CYP1A2 [6]): 98%
- inhibition at 10 µM (CYP3A4 [7]): 92%
- IC50 [9]: 373 nM
- inhibition at 10 µM (CYP2C9 [10]): 74%
- inhibition at 1 µM (CYP2B6 [11]): 60%
- inhibition at 10 µM (CYP2B6 [12]): 87%
- half-life [13]: 3.8 h
- inhibition at 2 µM [14]: 83%
- inhibition at 0.2 µM [16]: 28%
- IC50 [18]: 562 nM
- inhibition at 10 µM (CYP1A2 [19]): 100%
- inhibition at 1 µM (CYP2C19 [20]): 95%
- Cmax [21]: 1740 ng/mL
- CL/F [22]: 125 mL/min/kg
- inhibition at 1 µM (CYP3A4 [23]): 88%
- Tmax [24]: 1 h
- inhibition at 1 µM (CYP2C9 [25]): 81%
SMILES: CCC(c1ccc(-c2ccsc2)cc1)n1ccnc1 (stereo unspecified)
- Activity (Rattus norvegicus [1]): 37.6%
- Activity (Rattus norvegicus [8]): 30.5%
- Activity (Rattus norvegicus [15]): 63%
- Activity (Rattus norvegicus [17]): 26.9%
- Activity (Rattus norvegicus [26]): 62.6%

SMILES: CC(=O)O[C@H]1CC[C@@]2(C)C(=CC[C@@H]3[C@@H]2CC[C@]2(C)C(c4cccnc4)=CC[C@@H]32)C1 [ABIRATERONE ACETATE]
- Activity (Rattus norvegicus [27]): 44%
- Activity (Rattus norvegicus [28]): 35.6%
- Activity (Rattus norvegicus [29]): 43.3%
- Activity (Rattus norvegicus [30]): 92.5%
- Activity (Rattus norvegicus [31]): 43.5%
